In patent US20230044787A1, “TRICYCLE DIHYDROIMIDAZOPYRIMIDONE DERIVATIVE, PREPARATION METHOD THEREOF, PHARMACEUTICAL COMPOSITION AND USE THEREOF” (priority 2019, published 2023) one finds IC50 data, which are given here for 20 compounds.

The structures appear in SMILES notation.

The assay addresses T1, Lp-PLA2 (Homo sapiens, UniProt Q13093).
T1 construct: aliquoted and thawed 40 μL of pooled human plasma was previously added; from tissue; host or cells: pooled human plasma
T1 sequence (Q13093 22-441): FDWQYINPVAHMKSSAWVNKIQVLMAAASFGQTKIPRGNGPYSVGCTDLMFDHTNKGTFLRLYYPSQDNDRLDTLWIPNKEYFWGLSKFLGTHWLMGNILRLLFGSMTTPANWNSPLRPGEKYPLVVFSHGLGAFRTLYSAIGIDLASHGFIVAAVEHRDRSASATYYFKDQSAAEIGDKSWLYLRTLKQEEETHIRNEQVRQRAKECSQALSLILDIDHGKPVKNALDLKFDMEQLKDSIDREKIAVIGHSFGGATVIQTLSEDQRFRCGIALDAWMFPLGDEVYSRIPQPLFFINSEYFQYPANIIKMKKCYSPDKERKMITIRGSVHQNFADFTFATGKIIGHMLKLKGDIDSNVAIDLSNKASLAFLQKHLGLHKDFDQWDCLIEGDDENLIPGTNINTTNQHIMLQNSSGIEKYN
The assay is described as follows: Lipoprotein-associated phospholipase A2 (Lp-PLA2) human plasma assay (Thio-PAF assay). To be noted: Lp-PLA2 human plasma assay (Thio-PAF), pooled human plasma, 30-min pre-incubation at room temperature. The class given is biochemical.
As to `N#Cc1cc(Oc2ccc(COc3cc4n(c(=O)n3)C[C@@]35CO[C@@H](CN43)C5)cc2F)cc(C(F)(F)F)c1` [Example 31], the IC50 is 7.1 nM.
Under `O=c1nc(OCCc2ccc(Oc3ccnc(C(F)(F)F)c3)c(F)c2)cc2n1C[C@]13CO[C@H](CN21)C3` [Example 156] stands 5.7 nM; under `O=c1nc(OCCc2ccc(Oc3cccc(C(F)(F)F)c3)c(F)c2)cc2n1CC13CC(CN21)C3` [Example 182, 3-(3-fluoro-4-(3-(trifluoromethyl)phenoxy)phenethoxy)-7,8-dihydro-1H,6H,9H-7,8a-methanopyrrolo[1′,2′:3,4]imidazo[1,2-c] pyrimidin-1-one], 9.4 nM.
Under `O=c1nc(OCc2cc(F)c(F)c(F)c2)cc2n1C[C@]13CO[C@H](CN21)C3` [Example 24, (3S,11aR)-7-((3,4,5-trifluorobenzyl)oxy)-3,4-dihydro-1H,9H,11H-3,11a-methanopyrimido[6′,1′:2,3] imidazo[5,1-c][1,4]oxazin-9-one] stands 13.2 nM; under `O=c1nc(OCc2ccc(Oc3ccc(Cl)c(C(F)(F)F)c3)cc2)cc2n1C[C@]13CO[C@H](CN21)C3` [Example 16, (3S,11aR)-7-((4-(4-chloro-3-(trifluoromethyl)phenoxy)benzyl)oxy)-3,4-dihydro-1H,9H,11H-3,11a-methanopyrimido[6′,1′:2,3] imidazo[5,1-c][1,4]oxazin-9-one], 5.2 nM.
To `O=c1nc(OCc2ccc(Oc3cccc(C(F)(F)F)c3)c(F)c2)cc2n1CC13CC(CN21)C3` [Example 124, 3-((3-fluoro-4-(3-(trifluoromethyl)phenoxy)benzyl)oxy)-7,8-dihydro-1H,6H,9H-7,8a-methanopyrrolo[1′,2′:3,4] imidazo[1,2-c]pyrimidin-1-one] belongs 6.1 nM; to `CC12CCCCN1c1cc(OCc3cc(F)c(Oc4ccnc(C(F)(F)F)c4)c(F)c3)nc(=O)n1C2` (centres unmarked) [Example 66, 3-((3,5-difluoro-4-((2-(trifluoromethyl)pyridin-4-yl)oxy)benzyl)oxy)-9a-methyl-6,7,8,9,9a,10-hexahydro-1H-pyrido[1′,2′:3,4]imidazo [1,2-c]pyrimidin-1-one], 6.9 nM; to `O=c1nc(OCc2cc(F)c(Oc3ccnc(C(F)(F)F)c3)c(F)c2)cc2n1C[C@]13CO[C@H](CN21)C3` [Example 1], 4.4 nM.
Consider `O=C1N(CC23CC(C2)C3)[C@@H]2CN3c4cc(OCc5ccc(Oc6ccnc(C(F)(F)F)c6)c(F)c5)nc(=O)n4C[C@]13C2` [Example 198, (3S,11aR)-2-(bicyclo[1.1.1]pent-1-ylmethyl)-7-((3-fluoro-4-((2-(trifluoromethyl)pyridin-4-yl)oxy)benzyl)oxy)-3,4-dihydro-9H,11H-3,11a-methanopyrazino[1′,2′:3,4]imidazo [1,2-c]pyrimidin-1,9(2H)-dione], for which the IC50 amounted to 5.1 nM.
Turning to `Cn1cc(Oc2c(F)cc(COc3cc4n(c(=O)n3)CC3(C)CCCCN43)cc2F)cn1` (centres unmarked) [Example 68, 3-((3,5-difluoro-4-((1-methyl-1H-pyrazol-4-yl)oxy)benzyl)oxy)-9a-methyl-6,7,8,9,9a,10-hexahydro-1H-pyrido[1′,2′:3,4]imidazo [1,2-c]pyrimidin-1-one], the IC50 was 50 nM.
As for `O=c1nc(OCc2cc(F)c(Oc3ccnc(C(F)(F)F)c3)c(F)c2)cc2n1CC13CCC(CC1)N23` [Example 46, 3-((3,5-difluoro-4-((2-(trifluoromethyl)pyridin-4-yl)oxy)benzyl)oxy)-7,8-dihydro-1H,6H,9H-6,8a-ethanopyrrolo[1′,2′:3,4] imidazo[1,2-c]pyrimidin-1-one], the IC50 worked out at 15.3 nM.
On to `O=c1nc(OCc2ccc(Oc3ccnc(C(F)(F)F)c3)c(F)c2)cc2n1CC13CC(F)(CN21)C3` [Example 157, 7-fluoro-3-((3-fluoro-4-((2-(trifluoromethyl)pyridin-4-yl)oxy)benzyl)oxy)-7,8-dihydro-1H,6H,9H-7,8a-methanopyrrolo[1′,2′:3,4] imidazo[1,2-c]pyrimidin-1-one], for which the IC50 was determined as 3.9 nM.
To `O=c1nc(OCc2ccc(Oc3ccnc(C(F)(F)F)c3)c(F)c2)c(C(F)(F)F)c2n1C[C@]13CO[C@H](CN21)C3` [Example 164, (3S,11aR)-7-((3-fluoro-4-((2-(trifluoromethyl)pyridin-4-yl)oxy)benzyl)oxy)-6-(trifluoromethyl)-3,4-dihydro-1H,9H,11H-3,11a-methanopyrimido[6′,1′:2,3] imidazo[5,1-c][1,4]oxazin-9-one] belongs 1.5 nM; to `Cc1cc(Oc2c(F)cc(COc3nc(=O)n4c(c3F)N3C[C@@H]5C[C@]3(CO5)C4)cc2F)ccn1` [Example 89, (3S,11aR)-7-((3,5-difluoro-4-((2-methyl-pyridin-4-yl)oxy)benzyl)oxy)-6-fluoro-3,4-dihydro-1H,9H,11H-3,11a-methanopyrimido[6′,1′:2,3] imidazo[5,1-c][1,4]oxazin-9-one], 10.9 nM.
In the case of `N#Cc1cc(COc2cc3n(c(=O)n2)C[C@@]24CO[C@@H](CN32)C4)ccc1Oc1cccc(C(F)(F)F)c1` [Example 33], the IC50 was determined as 6 nM.
As for `N#Cc1cc(COc2cc3n(c(=O)n2)CC24CCC(CC2)N34)ccc1F` [Example 163, 2-fluoro-5-(((1-oxo-7,8-dihydro-1H,6H,9H-6,8a-ethanopyrrolo[1′,2′:3,4]imidazo[1,2-c]pyrimidin-3-yl)oxy)methyl)benzonitrile], the IC50 worked out at 2.4 nM.
Under `CC12CCCCN1c1cc(OCc3ccc(Oc4ccc(Cl)c(F)c4)c(C#N)c3)nc(=O)n1C2` (centres unmarked) [Example 72, 2-(4-chloro-3-fluorophenoxy)-5-(((-9a-methyl-1-oxo-6,7,8,9,9a,10-hexahydro-1H-pyrido[1′,2′:3,4]imidazo [1,2-c]pyrimidin-3-yl)oxy)methyl)benzonitrile] stands 7.6 nM.
To `O=C(c1ccccc1)N1C[C@]23C[C@H]1CN2c1cc(OCc2ccc(Oc4ccnc(C(F)(F)F)c4)c(F)c2)nc(=O)n1C3` [Example 174] belongs 5 nM; to `COc1c(OCc2ccc(F)c(C#N)c2)nc(=O)n2c1N1C[C@@H]3C[C@]1(CO3)C2` [Example 142], 3.6 nM; to `O=c1nc(OCc2ccc(Oc3ccnc(C(F)(F)F)c3)cc2F)cc2n1C[C@]13CO[C@H](CN21)C3` [Example 96, (3S,11aR)-7-((2-difluoro-4-((2-(trifluoromethyl)pyridin-4-yl)oxy)benzyl)oxy)-3,4-dihydro-1H,9H,11H-3,11a-methanopyrimido[6′1′:2,3] imidazo[5,1-c][1,4]oxazin-9-one], 4.7 nM.
